From publication PMC7851395 (British Journal of Cancer, 2020)

Experiments:
[1] = test system: human NSCLC cells; test: Colony-formation assay; type: cell-based; settings: 50, 100, 200 nM for 24 h, colonies after 7 days
Method: The human NSCLC cells and normal cells were seeded at 1000 cells/well on six-well plates, placed in 5% CO2 atmosphere and cultured overnight at 37 °C. DMSO (Control) and acetyl-bufalin (50, 100, 200 nM) were added to the cells for 24 h. The fresh medium was replaced every 2 days to maintain the growth of cells for 7 days. Colonies were washed with phosphate-buffered saline (PBS), fixed with 4% paraformaldehyde at room temperature for 15 min, washed with purified water for three times and stained with Crystal violet for 10 min. Each experiment was in triplicate, and three independent experiments were carried out.

[2] = test system: A549 cells; test: MTT cytotoxicity assay, A549 cells; type: cell-based; settings: Homo sapiens; A549 cells, 48 h, MTT; read-out: IC50
Method: (§1) The cytotoxicity and viability of human NSCLC cells and normal cells were determined by MTT assay. MTT assay was performed as described previously.[22] MTT assay was used to determine the cell cytotoxicity and viability in human NSCLC cells. Cells (5 × 10^3 cells/well) were plated in 96-well plates and attached overnight. After the proper treatment, the MTT solution was added at 25 µL/well and incubated at 37 °C for 4 h. The formazan crystals were dissolved in 150 µL of DMSO, and the optical density (OD) was measured using a Microplate Reader at 490 nm. The cell viability was calculated by the following formula: viability = (average OD values of treatment wells/average OD values of vehicle control wells) × 100%. And half-maximal inhibitory concentration (IC50) values were determined by GraphPad Pro Prism 7.0.

[3] = test system: PC-9 cells; test: Wound-healing migration assay; type: cell-based, human; settings: 25, 50, 100 nM, 48 h
Method: The ability of cell migration was evaluated by wound-healing assay. The cells grew to 80–90% confluence in six-well plates and then scraped the cell monolayer at the centre of the wells with the tip of a sterile 10 μL pipette to form a clean, straight wound area. Then, the wells were washed with PBS to remove detached cells from the plates. After that, cells were cultured in serum-free RPMI medium with vehicle control or acetyl-bufalin (25, 50, 100 nM). The migration of cells to the wound area was photographed at the 0, 24 and 48 h timepoints with a microscope and imaging system (Leica, Wetzlar, Germany).

[4] = test system: STAT3; test: STAT3 luciferase-report assay; type: cell-based, human; settings: PC-9 and H460 cells, 0-200 nM, 12 h
Method: STAT3 activation was detected by the STAT3 luciferase reporter plasmid (PGLSTAT3-LUC), as was previously described.[23] Simply put, PC-9 and H460 cells were seeded in 24-well plates and incubated for 24 h before transfection. The cells were grown to different densities and co-transfected with pGLSTAT3-Luc and pRL-TK (a plasmid encoding Renilla luciferase) for 6 h using Lipofectamine 3000 (Invitrogen, Carlsbad, CA, USA). Finally, the cells were treated with different concentrations of […] for 12 h. Luciferase activity was assessed by SpectraMax ID3 (Molecular Devices, San Jose, CA, USA). The inhibition of STAT3 activity by acetyl-bufalin was calculated as the ratio between the value of firefly and Renilla luciferase activity. Each experiment was done in triplicate in three independent experiments.

[5] = test system: PC-9 cells; test: MTT cytotoxicity assay, PC-9 cells; type: cell-based; settings: Homo sapiens, PC-9, 48 h, PC-9 cells, 48 h, MTT; read-out: IC50
Method: as §1

[6] = test system: patient-derived human NSCLC xenografts; test: Patient-derived NSCLC xenograft (PDX) model; type: in vivo, mice; settings: for average tumour volume: 14 days, vehicle 931.90 mm^3
Method: For the patient-derived human NSCLC xenografts (PDXs) animal model, four pairs of lung cancer samples were obtained from patients who had undergone surgical treatment of lung cancer in the First Affiliated Hospital of Wenzhou Medical University. Fresh tumour tissue was sterilely incised into ~3-mm^3 pieces and subcutaneously injected into immunodeficient NOD/SCID mice within 30 min. The remaining tumour tissues were stored at −80 °C. When the tumours have successfully engrafted, tumour samples were removed and passaged into the third generation of nude mice for the following studies. All 18 mice were allocated into three groups (n = 6) and received i.p. injection of acetyl-bufalin (1 mg/kg/2 days and 2 mg/kg/2 days) as compared with mice injected with PBS (vehicle group) every other day. Tumour volume was measured as V = (L × W × W)/2, in which L and W represent the length and width of tumour. After 14 days, all the mice were killed by cervical dislocation. The tumours, hearts, livers, kidneys and lungs were removed for use in the histology and western blot analysis.

[7] = test system: H460 and PC-9 cells; test: Cell proliferation in cells transfected with CDK9 siRNA or control siRNA; type: cell-based, human
Method: as §1
The siRNA targeting human CDK9 was purchased from Genepharma (Shanghai, China) with the following sequence: siCDK9-1: 5′-[…] TT-3′, siCDK9-2: 5′-[…]-3′, siCDK9-3: 5′-[…]-3′. Cells were transfected with 50 nM siRNA using Lipofectamine 3000 (Invitrogen, CA, USA) for 48 h.

[8] = test system: caspase-3; test: Caspase-3 activity assay; type: cell-based; settings: human NSCLC cells (H460, PC-9), 24 h
Method: The caspase-3 assay was performed as described previously.[23] According to the manufacturer’s protocol, the activity of caspase‐3 was evaluated by using a caspase‐3 colorimetric assay kit (Abcam, Cambridge, UK). H460 and PC-9 cells were collected and resuspended in lysis buffer. After incubation on ice for 10 min, the cell lysate was centrifuged at 12,000 rpm for 10 min at 4 °C, and the protein concentration in the supernatants was measured using the Bradford dye method. The supernatants were incubated with a reaction buffer containing 200 µM devd-p-nitroanilide, for caspase‐3 in a caspase assay buffer at 37 °C with 10 mM dithiothreitol for 2 h. The activity of caspase-3 was determined by measuring the absorbance at 405 nm. Each experiment was done in triplicate for three independent experiments.

[9] = test system: P-CDK9, CDK9, P-STAT3 and S2 RNAPII; test: Western blot of CDK9/STAT3 pathway proteins; type: cell-based, human; settings: H460 and PC-9 cells, 12 h; acetyl-bufalin 25-200 nM, SNS-032 200 nM
Method: Tissue proteins were extracted with tissue protein lysate buffer. Cells were grown to different densities and extracted with cell protein lysate buffer. The protein was mixed with loading buffer and boiled for 10 min at 100 °C, then loaded and separated by 10% or 12% sodium dodecyl sulfate-polyacrylamide gel (SDS-PAGE) and then transferred onto a PVDF membrane blocking with 5% skim milk. The blots were incubated overnight with specific primary antibodies at 4 °C. On the second day, after washing with TBST (a mixture of tris-buffered saline (TBS) and Tween 20) three times, the […] membranes were incubated with horseradish peroxidase-conjugated secondary antibodies for 1 h. The immunoreactive bands were visualised with enhanced chemiluminescence reagent.

CC(=O)OC1CCC2(C)C(CCC3C2CCC2(C)C(c4ccc(=O)oc4)CCC32O)C1 (stereo not shown) [acetyl-bufalin]
NSCLC cell cloning ability [1]: inhibited dose-dependently | IC50 [2]: 28.1 nM | PC-9 cell migration [3]: markedly blocked | P-STAT3 activation (luciferase reporter) [4]: significantly inhibited | IC50 [5]: 64 nM | average tumour volume ([6]; 1 mg/kg per 2 days i.p.): 544.43 mm^3 | average tumour volume ([6]; 2 mg/kg per 2 days i.p.): 256.29 mm^3 | body weight of the mice ([6]; 1 and 2 mg/kg per 2 days i.p.): stable | gross toxicities on heart, liver, kidney and lung ([6]; H&E staining, compared with vehicle): no gross toxicities | cell proliferation of siCDK9 cells ([7]; H460 and PC-9 transfected with CDK9 siRNA1, 48 h): did not significantly affect | cell proliferation of control siRNA cells ([7]; H460 and PC-9 transfected with control siRNA, 48 h): hampered cell proliferation | BAX expression and caspase-3 activity [8]: dose-dependently increased | P-CDK9, CDK9, P-STAT3 and S2 RNAPII expressions [9]: significantly dose-dependently decreased
